{"source": "patent US20190248834A1", "about": "“ENDOMORPHIN-2, TETRAPEPTIDE DERIVATIVES THEREOF, AND USES THEREOF” (priority 2016, published 2019)", "type_in_all_cases": "in vivo, human", "key": {"[1]": {"test_system": "chronic subpatellar and peripheral patellar pain", "experiment": "Example 8: analgesic effect on knee pain, topical", "from_the_text": "A subject had chronic subpatellar and peripheral patellar pain in their knees.\nThe subject topically applied an anhydrous composition containing 0.7% (w/v) N-Ac-Tyr-Pro-Phe-Phe-NH2 (SEQ ID NO: 23) in EP73, formulated as described in Example 2, at bedtime. The next morning, they observed about 50% relief of pain. The subject topically re-applied the same composition under a plastic film wrap for one hour, after which they observed about 95% relief of pain."}, "[2]": {"test_system": "ordinary type of headache", "experiment": "Example 11: analgesic effect on headache, topical", "details": "1% (w/v) in EP73, topical", "from_the_text": "A subject, developed an ordinary type of headache in the early afternoon. Such headaches usually would persist for several hours, being relieved incompletely by treatment with oral drugs, such as ibuprofen and/or acetaminophen. In this instance, they topically applied an anhydrous composition containing 1% (w/v) N-Ac-Tyr-Pro-Phe-Phe-NH2(SEQ ID NO: 23) in EP73 to the frontal and temporal areas."}, "severe migraine": {"test_system": "severe migraine", "experiment": "Example 13: analgesic effect on chronic migraine headache, topical", "details": "1% (w/v) in WEP442, topical", "from_the_text": "One late afternoon, the subject developed severe pain in those areas, accompanied by feelings of vertigo and nausea. The subject topically applied a composition containing 1% (w/v) N-Ac-Tyr-Pro-Phe-Phe-NH2, (SEQ ID NO: 23) in WEP442 to the entire occipital scalp, including the peri-auricular areas."}, "[3]": {"test_system": "knee and lower back pain from osteoarthritis", "experiment": "Example 14: analgesic effect on osteoarthritic knees and lower back, topical", "details": "1% (w/v) in WEP442, about 60 ml to whole body", "protocol": "A subject had severe knee pain for many years and lower back pain for approximately one year from osteoarthritis, and in both cases, the pain was partially relieved by oral opiates. One day before bedtime, the subject took a low dose of an opiate, but the next morning, they still developed substantial pain in the knees and moderate pain in the lower back.\nThe subject topically applied approximately 60 ml of a solution composition containing 1% (w/v) N-Ac-Tyr-Pro-Phe-Phe-NH2 (SEQ ID NO: 23) in WEP442 to the whole body, excluding only the scalp, face and soles. […] This lowered degree of pain was maintained for about 7 hours."}, "[4]": {"test_system": "psoriatic arthritis of fingers", "experiment": "Example 19: analgesic effect on psoriatic arthritis of fingers, topical", "protocol": "A subject had extensive plaque psoriasis and painful arthritis of the interphalangeal joints of both index fingers, left thumb and left 5th finger. The pain was compromising their work performance as an esthetician. […] Pain relief lasted for about 6 hours."}, "[5]": {"test_system": "arthritic pain in upper back", "experiment": "Example 20: analgesic effect on arthritic pain of upper back, topical", "protocol": "A subject had arthritic pain in their upper back and associated paresthesia of their fingers, described as feelings of tingling and “pins and needles”. These symptoms had been present for about 1 year. […] Pain relief lasted for 10-12 hours. […] Repeated applications for 10-12 days gave the same results."}, "hallux valgus (bunion)": {"test_system": "hallux valgus (bunion)", "experiment": "Example 26: analgesic effect on painful inflammation of hallux valgus, topical", "from_the_text": "A subject had hallux valgus of the right 1st metatarsal-proximal phalangeal joint for a duration of 5-6 years. Pain in the joint was episodic and associated with inflammation. […] A second application of the solution was made that evening, even though there was no pain. […] Such improvement lasted over the next 2 weeks."}, "intense headaches": {"test_system": "intense headaches", "experiment": "Example 33: analgesic effect on recurring headaches, topical", "details": "0.8% (w/v) in EP73, topical", "protocol": "A subject with intense headaches after several hours of using a computer in their work as a real estate agent, topically applied to the forehead and temporal areas a composition containing 0.8% (w/v) of N-Ac-Tyr-Pro-Phe-Phe-NH2 (SEQ ID NO: 23)0 in EP73, formulated as described in Example 2. […] Such headaches, occurring 1-2 times weekly, were treated in the same manner over a 2 month interval, with headache pain being relieved each time."}, "severe frontal headaches": {"test_system": "severe frontal headaches", "experiment": "Example 47: analgesic effect on severe headaches, topical", "from_the_text": "A subject had severe frontal headaches occurring every 5-10 days."}, "[6]": {"test_system": "chronic osteoarthritis of the knees", "experiment": "Example 53: comparative analgesic efficacy in topical treatment of knee osteoarthritis", "details": "1% (w/v) in WEP442, maintenance treatment twice daily", "protocol": "A subject with chronic osteoarthritis of the knees participated in this study. Each tetrapeptide derivative was dissolved in WEP442 to make a 1% (w/v) solution. Early in the morning, the solution was applied to a knee, which was immediately wrapped in plastic film from a roll 5 inches wide. The film wrap was left in place for about 7-8 hours, and then it was removed. Such application was repeated at bedtime and removed several hours later during the night. Each 1% (w/v) solution of tetrapeptide derivative was so applied for 2 days and efficacy was evaluated by the subject. No topical treatment was made during an ensuing interval of 2-3 days, at which time treatment with a 1% (w/v) solution of another derivative was initiated and carried out as described above. In total, six tetrapeptide derivatives were evaluated for analgesic efficacy.\nThe following tetrapeptide derivative was judged to provide 2+ to 3+ pain relief by clinical evaluation: N-Pa-Tyr-Pro-Phe-Phe-NH2(SEQ ID NO: 64).\nAfter the above evaluation period, maintenance treatment was done with a composition containing 1% (w/v) of N-Pg-Tyr-Pro-Phe-Phe-NH2 (SEQ ID NO: 44) in WEP442 applied twice daily."}, "carpal tunnel syndrome": {"test_system": "carpal tunnel syndrome", "experiment": "Example 78: analgesic effect on carpal tunnel syndrome, topical", "protocol": "A subject, and a computer operator, presented with symptoms of carpal tunnel syndrome, i.e. wrist pain and tingling sensations of the palm and fingers. […] Relief occurred within 3 minutes of topical application and lasted for 2-4 hours."}}, "note": "Non-standard residues stand in square brackets, D forms with d. pGlu = O=C1CC[C@@H](C(=O)O)N1"}
{"compound": "CC(=O)N[C@@H](Cc1ccc(O)cc1)C(=O)N1CCC[C@H]1C(=O)N[C@@H](Cc1ccccc1)C(=O)N[C@@H](Cc1ccccc1)C(N)=O", "note": "[N-Ac-Tyr-Pro-Phe-Phe-NH2]", "values": [{"measurement": "relief of pain", "setting": "[1]; 0.7% (w/v) in EP73, re-applied under plastic film wrap for one hour", "result": "about 95%"}, {"measurement": "relief of pain", "setting": "[1]; 0.7% (w/v) in EP73, topical at bedtime, next morning", "result": "about 50%"}, {"measurement": "duration of headache alleviation", "setting": "[2]", "result": 18, "unit": "h"}, {"measurement": "pain relief", "setting": "[2]", "result": "headache pain disappeared completely"}, {"measurement": "time to pain relief", "setting": "[2]", "result": "Within minutes"}, {"measurement": "pain relief", "setting": "severe migraine", "result": "all pain and other symptoms disappeared"}, {"measurement": "recurrence", "setting": "severe migraine", "result": "no recurrence of any migraine headache during the next week"}, {"measurement": "time to pain relief", "setting": "severe migraine", "result": "≤ 5", "unit": "min"}, {"measurement": "duration of lowered degree of pain", "setting": "[3]", "result": "about 7 hours"}, {"measurement": "pain in both knees and the lower back", "setting": "[3]; after 4 hours", "result": "diminished to very low level"}, {"measurement": "pain in both knees and the lower back", "setting": "[3]; over the next 2 hours", "result": "diminished substantially"}, {"measurement": "duration of pain relief", "setting": "[4]; 1% (w/v) in WEP442, topical", "result": "about 6 hours"}, {"measurement": "time to pain relief", "setting": "[4]; 1% (w/v) in WEP442, topical", "result": "≤ 30", "unit": "s"}, {"measurement": "pain relief", "setting": "[4]; 1% (w/v) in WEP442, topical each day for one month", "result": "all arthritic pain of the finger was gone"}, {"measurement": "pain relief", "setting": "[5]; 1% (w/v) in WEP442, daily topical to upper back", "result": "relieved the upper back pain completely"}, {"measurement": "duration of pain relief", "setting": "[5]; 1% (w/v) in WEP442, topical", "result": "10 to 12", "unit": "h"}, {"measurement": "time to pain relief", "setting": "[5]; 1% (w/v) in WEP442, topical", "result": "3 to 4", "unit": "min"}, {"measurement": "paresthesia of the fingers", "setting": "[5]; 1% (w/v) in WEP442, topical to upper back", "result": "persisted without any discernible change"}, {"measurement": "erythema, swelling and pain", "setting": "hallux valgus (bunion); 1% (w/v) in WEP442, morning after second application", "result": "the erythema was gone, the swelling had subsided, and there was no pain"}, {"measurement": "duration of improvement", "setting": "hallux valgus (bunion); 1% (w/v) in WEP442, topical", "result": 2, "unit": "weeks"}, {"measurement": "pain relief", "setting": "hallux valgus (bunion); 1% (w/v) in WEP442, topical", "result": "all pain was gone"}, {"measurement": "time to pain relief", "setting": "hallux valgus (bunion); 1% (w/v) in WEP442, topical", "result": "≤ 15", "unit": "min"}, {"measurement": "pain relief", "setting": "intense headaches", "result": "Complete headache relief"}, {"measurement": "time to pain relief", "setting": "intense headaches", "result": "≤ 1", "unit": "min"}, {"measurement": "time to pain relief", "setting": "severe frontal headaches; 1% (w/v) in WEP442, topical", "result": "3 to 4", "unit": "min"}, {"measurement": "pain relief", "setting": "severe frontal headaches; 1% (w/v) in WEP442, topical at onset", "result": "completely interrupted all pain"}]}
{"compound": "N-Pg-Tyr-Pro-Phe-Phe-NH2 ([pGlu]YPFF-NH2; SMILES NC(=O)[C@H](Cc1ccccc1)NC(=O)[C@H](Cc1ccccc1)NC(=O)[C@@H]1CCCN1C(=O)[C@H](Cc1ccc(O)cc1)NC(=O)[C@@H]1CCC(=O)N1)", "values": [{"measurement": "knee pain compared to several months earlier", "setting": "[6]", "result": "the knee pain was substantially less"}, {"measurement": "duration of relief", "setting": "carpal tunnel syndrome; 0.5% (w/v) in WEP442, topical", "result": "2 to 4", "unit": "h"}, {"measurement": "time to relief", "setting": "carpal tunnel syndrome; 0.5% (w/v) in WEP442, topical", "result": "≤ 3", "unit": "min"}, {"measurement": "relief of symptoms", "setting": "carpal tunnel syndrome; 0.5% (w/v) in WEP442, topical several times during working hours", "result": "substantial relief of the symptoms"}]}
